Common to all, as to assay type: cell-based
The test system of one test is K. pneumoniae NCTC 9632. The experiment in a line: MIC by agar dilution, K. pneumoniae NCTC 9632. Conditions: Klebsiella pneumoniae, NCTC9632, 17 h; K. pneumoniae NCTC 9632; agar dilution, Mueller-Hinton agar; read-out: Minimal Inhibitory Concentration (MIC). The procedure, abridged: (§1)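 Two-fold dilutions of compound were dispersed in Mueller-Hinton agar, inoculated with test strain at 10^6 CFU per ml, and incubated at 35°-37° C. for 17±1 hours; MIC read from agar dilution.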

The next test has as its system Ent. cloacae IFO 13535. The experiment in a line: MIC by agar dilution, Ent. cloacae IFO 13535. Conditions: Enterobacter cloacae, IFO13535, 17 h; Ent. cloacae IFO 13535; agar dilution, Mueller-Hinton agar; read-out: Minimal Inhibitory Concentration (MIC). In short, it runs like this:
as §1
On the technique in general: In agar dilution the substance is mixed into plates at graded concentrations.

The test system of test [1] is Ps. aeruginosa NCTC 10490. The experiment in a line: MIC by agar dilution, Ps. aeruginosa NCTC 10490. Conditions: Pseudomonas aeruginosa, NCTC10490, 17 h, Mueller-Hinton agar, read-out: Minimal Inhibitory Concentration (MIC). The procedure, abridged:
as §1

The next test has as its system E. coli NIHJ JC-2. Put plainly: MIC by agar dilution, E. coli NIHJ JC-2. Conditions: Escherichia coli, NIHJJC2, 17 h; E. coli NIHJ JC-2; agar dilution, Mueller-Hinton agar; read-out: Minimal Inhibitory Concentration (MIC). In short, it runs like this: as §1
Another test has as its system B. subtilis ATCC 6633. The experiment in a line: MIC by agar dilution, B. subtilis ATCC 6633. Conditions: Bacillus subtilis, ATCC6633, 17 h; B. subtilis ATCC 6633; agar dilution, Mueller-Hinton agar; read-out: Minimal Inhibitory Concentration (MIC). The procedure, abridged: as §1
For the next test, the system named is Staph. aureus C-5113. The experiment in a line: MIC by agar dilution, Staph. aureus C-5113. Conditions: Staphylococcus aureus, C5113, 17 h, Mueller-Hinton agar, read-out: Minimal Inhibitory Concentration (MIC). The procedure, abridged: as §1
The next test concerns Ps. aeruginosa DY-2. Put plainly: MIC by agar dilution, Ps. aeruginosa DY-2. Conditions: Pseudomonas aeruginosa, DY2, 17 h; Ps. aeruginosa DY-2; agar dilution, Mueller-Hinton agar; read-out: Minimal Inhibitory Concentration (MIC). The procedure, abridged: as §1
The subject of the next test is P. vulgaris NCTC 8313. The experiment in a line: MIC by agar dilution, P. vulgaris NCTC 8313. Conditions: Proteus vulgaris, NCTC8313, 17 h; P. vulgaris NCTC 8313; agar dilution, Mueller-Hinton agar; read-out: Minimal Inhibitory Concentration (MIC). In short, it runs like this: as §1
The subject of another test is Prov. stuartii IFO 12930. The experiment in a line: MIC by agar dilution, Prov. stuartii IFO 12930. Conditions: Providencia stuartii, IFO12930, 17 h, Mueller-Hinton agar, read-out: Minimal Inhibitory Concentration (MIC). In short, it runs like this:
as §1

The test system of the next test is M. morganii DY-1. The experiment in a line: MIC by agar dilution, M. morganii DY-1. Conditions: Morganella morganii, DY1, 17 h; M. morganii DY-1; agar dilution, Mueller-Hinton agar; read-out: Minimal Inhibitory Concentration (MIC). In short, it runs like this: as §1
A further test concerns E. coli DY-1. The experiment in a line: MIC by agar dilution, E. coli DY-1. Conditions: Escherichia coli, DY1, 17 h; E. coli DY-1; agar dilution, Mueller-Hinton agar; read-out: Minimal Inhibitory Concentration (MIC). The procedure, abridged:
as §1

A further test relates to Staph. aureus ATCC 6538P. The experiment in a line: MIC by agar dilution, Staph. aureus ATCC 6538P. Conditions: Staphylococcus aureus, ATCC6538P, 17 h; Staph. aureus ATCC 6538P; agar dilution, Mueller-Hinton agar; read-out: Minimal Inhibitory Concentration (MIC). In short, it runs like this:
as §1

In the next test the test system is Staph. aureus C-5216. Put plainly: MIC by agar dilution, Staph. aureus C-5216. Conditions: Staphylococcus aureus, C5216, 17 h, Mueller-Hinton agar, read-out: Minimal Inhibitory Concentration (MIC). In short, it runs like this: as §1
Test [2] has as its system Ps. aeruginosa ATCC 10145. The experiment in a line: MIC by agar dilution, Ps. aeruginosa ATCC 10145. Conditions: Pseudomonas aeruginosa, ATCC10145, 17 h, Mueller-Hinton agar, read-out: Minimal Inhibitory Concentration (MIC). In short, it runs like this: as §1
The next test has as its system Ent. aerogenes IFO 12979. Put plainly: MIC by agar dilution, Ent. aerogenes IFO 12979. Conditions: Klebsiella aerogenes, IFO12979, 17 h, Mueller-Hinton agar, read-out: Minimal Inhibitory Concentration (MIC). The procedure, abridged:
as §1

For test [3], the system named is Ser. marcescens IFO 12648. Put plainly: MIC by agar dilution, Ser. marcescens IFO 12648. Conditions: Serratia marcescens, IFO12648, 17 h; Ser. marcescens IFO 12648; agar dilution, Mueller-Hinton agar; read-out: Minimal Inhibitory Concentration (MIC). In short, it runs like this:
as §1

The next test deals with E. coli No. 29. The experiment in a line: MIC by agar dilution, E. coli No. 29. Conditions: Escherichia coli, 17 h; E. coli No. 29; agar dilution, Mueller-Hinton agar; read-out: Minimal Inhibitory Concentration (MIC). In short, it runs like this: as §1
For a further test, the system named is Staph. aureus C-57. Put plainly: MIC by agar dilution, Staph. aureus C-57. Conditions: Staphylococcus aureus, C57, 17 h, Mueller-Hinton agar, read-out: Minimal Inhibitory Concentration (MIC). In short, it runs like this:
as §1

The test system of test [4] is S. epidermidis ATCC 12228. Put plainly: MIC by agar dilution, S. epidermidis ATCC 12228. Conditions: Staphylococcus epidermidis, ATCC12228, 17 h; S. epidermidis ATCC 12228; agar dilution, Mueller-Hinton agar; read-out: Minimal Inhibitory Concentration (MIC). In short, it runs like this: as §1
In a further test the test system is Staph. aureus Smith. Put plainly: MIC by agar dilution, Staph. aureus Smith. Conditions: Staphylococcus aureus, 17 h, Mueller-Hinton agar, read-out: Minimal Inhibitory Concentration (MIC). The procedure, abridged:
as §1

Values after ≈ are worked out from the molar mass of the structure shown.

The record followed here is US5593984A, “Cephalosporin derivatives” (Yuhan Corporation, priority 1992, dated 1997).

On to `NCCSc1ccc2c[n+](CC3=C(C(=O)[O-])N4C(=O)C(NC(=O)C(=NOCF)c5csc(N)n5)C4SC3)ccn12` (stereo not drawn) [Ex. 29, 7-β-[(Z)-2-(2-aminothiazol-4-yl)2-fluoromethoxyiminoacetamido]-3-[6-(2-aminoethylthio)pyrrolo[1,2-a]pyrazinium-2-yl]methyl-3-cephem-4-carboxylat], for which the MIC in the test with K. pneumoniae NCTC 9632 is at most 0.006 mg/L; with Ent. cloacae IFO 13535, 0.012 mg/L (≈ 0.0198 µM); in test [1] it was 0.2 mg/L (≈ 0.33 µM); with E. coli NIHJ JC-2, at most 0.006 mg/L; in the test with B. subtilis ATCC 6633, 0.05 mg/L (≈ 0.0824 µM); in the test on Staph. aureus C-5113, 0.78 mg/L (≈ 1.29 µM). For the same molecule, the MIC in the test on Ps. aeruginosa DY-2 was 6.25 mg/L (≈ 10.3 µM); in the test with P. vulgaris NCTC 8313, at most 0.006 mg/L; in the test on Prov. stuartii IFO 12930, at most 0.006 mg/L; in the test with M. morganii DY-1, at most 0.006 mg/L; with E. coli DY-1, at most 0.006 mg/L; with Staph. aureus ATCC 6538P, 0.2 mg/L (≈ 0.33 µM). Besides, the MIC with Staph. aureus C-5216 is 0.78 mg/L (≈ 1.29 µM); in test [2] it was 0.78 mg/L (≈ 1.29 µM); in the test with Ent. aerogenes IFO 12979, at most 0.006 mg/L; in test [3], at most 0.006 mg/L; with E. coli No. 29 it was at most 0.006 mg/L; in the test with Staph. aureus C-57, 25 mg/L (≈ 41.2 µM). Further, the values for the MIC (in test [4]; in the test on Staph. aureus Smith) were 0.05 mg/L (≈ 0.0824 µM) and 0.78 mg/L (≈ 1.29 µM), respectively.
On to `CO/N=C(\C(=O)N[C@@H]1C(=O)N2C(C(=O)[O-])=C(C[n+]3ccn4ccc(CO)c4c3)CS[C@H]12)c1nsc(N)n1` [Ex. 55, 7-β-[(Z)-2-(5-amino-1,2,4-thiadiazol-3-yl)-2-methoxyiminoacetamido]-3-(8-hydroxymethylpyrrolo[1,2-a]-pyrazinium-2-yl)methyl-3-cephem-4-carboxylate], for which the MIC in the test on K. pneumoniae NCTC 9632 is 0.025 mg/L (≈ 0.0459 µM); in the test with Ent. cloacae IFO 13535, 0.1 mg/L (≈ 0.184 µM); in test [1], 0.1 mg/L (≈ 0.184 µM); with E. coli NIHJ JC-2, 0.012 mg/L (≈ 0.022 µM); in the test with B. subtilis ATCC 6633 it was 0.1 mg/L (≈ 0.184 µM); with Staph. aureus C-5113, 6.25 mg/L (≈ 11.5 µM). Besides, the MIC was 1.56 mg/L (≈ 2.86 µM) with Ps. aeruginosa DY-2; 0.05 mg/L (≈ 0.0918 µM) with P. vulgaris NCTC 8313; at most 0.006 mg/L in the test on Prov. stuartii IFO 12930; 0.025 mg/L (≈ 0.0459 µM) with M. morganii DY-1; 0.012 mg/L (≈ 0.022 µM) with E. coli DY-1; 0.78 mg/L (≈ 1.43 µM) in the test on Staph. aureus ATCC 6538P. In addition, the MIC was 3.13 mg/L (≈ 5.75 µM) in the test with Staph. aureus C-5216; 0.78 mg/L (≈ 1.43 µM) in [2]; 0.025 mg/L (≈ 0.0459 µM) with Ent. aerogenes IFO 12979; 0.025 mg/L (≈ 0.0459 µM) in test [3]; at most 0.006 mg/L with E. coli No. 29; 25 mg/L (≈ 45.9 µM) in the test on Staph. aureus C-57. Besides, the MIC in test [4] is 0.2 mg/L (≈ 0.367 µM); in the test with Staph. aureus Smith, 1.56 mg/L (≈ 2.86 µM).
